Read-outs that look alike come from different tables or passages of the source.
Legend:
PDE10 [1] = target: T1, PDE10 (Homo sapiens, UniProt O76083, E580G); experiment: Kinetic assays of recombinant PDE10 yeast extract (cAMP and cGMP hydrolysis); type: biochemical
T1 construct: The entire open reading frame of the PDE10 cDNA (clone FB94a) was placed into a yeast ADH vector; made in house; host or cells: Saccharomyces cerevisiae strain BJ2-54 (no endogenous PDE activity); 100,000 x g supernatant of the lysate, not purified
T1 sequence (O76083 1-466 isoform O76083-3 E453G): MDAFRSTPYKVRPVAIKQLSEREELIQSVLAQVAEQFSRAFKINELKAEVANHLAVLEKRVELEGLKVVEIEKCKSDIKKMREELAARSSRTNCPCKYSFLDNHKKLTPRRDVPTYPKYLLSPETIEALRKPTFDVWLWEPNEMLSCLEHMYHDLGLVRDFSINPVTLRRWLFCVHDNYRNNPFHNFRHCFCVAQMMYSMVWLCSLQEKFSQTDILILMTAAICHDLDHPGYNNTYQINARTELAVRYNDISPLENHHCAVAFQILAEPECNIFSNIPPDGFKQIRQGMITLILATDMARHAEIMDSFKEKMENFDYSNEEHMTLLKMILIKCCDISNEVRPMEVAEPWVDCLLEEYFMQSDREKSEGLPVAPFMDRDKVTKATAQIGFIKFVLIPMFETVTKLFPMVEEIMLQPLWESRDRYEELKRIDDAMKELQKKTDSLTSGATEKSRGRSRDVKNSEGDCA

PDE3 = details: target family PDE3; Manganiello et al. 1990; cited from earlier work
PDE10 [2] = target: T1, PDE10; experiment: PDE10 inhibition by isozyme-specific PDE inhibitors, cAMP as substrate; type: biochemical
Procedure: The entire open reading frame of the PDE10 cDNA (clone FB94a) was placed into a yeast ADH vector including the alcohol dehydrogenase promoter. The construct was built in two steps.
Following transformation into BJ2-54, a yeast strain lacking endogenous PDE activity, a colony was selected, streaked out on SC-leu plates and a single colony carrying the PDE10 construct was chosen for further characterization. Following overnight growth in SC-leu media the culture was diluted 1:250 in fresh SC-leu and grown overnight at 30° C. until it reached a density of 10^7 cells/ml. The cells were collected by centrifugation, washed once with YEP 3% glycerol media, resuspended in YEP containing 3% glycerol, and grown at 30° C. for another 24 hours. The cells were harvested by centrifugation, washed with water, and frozen at −70° C. until use. Prior to use, an aliquot of the yeast extract was analyzed by SDS PAGE. A protein specific to yeast carrying the PDE10 expression construct that migrated on the SDS PAGE gels with the expected mobility (55.5 kDa) was observed by Coomassie blue staining.
Yeast cells (1×10^10) were thawed with 200 μg/ml each of pepstatin A, leupeptin, and aprotinin 1 mM DTT, and 20 μg/ml calpain inhibitors (I and II). Two hundred μl of glass beads (0.5 mm, acid washed) were added, and the mixture was vortexed for eight cycles of 30 seconds each. Samples were cooled for 4.5 minutes at 4° C. between cycles. After lysis, 0.8 ml lysis buffer was added, the lysate separated from the beads, and the lysate centrifuged for 30 minutes at 100,000×g in a Beckman TL-100 tabletop centrifuge. The supernatant was aliquoted, frozen in dry ice/ethanol, and stored at −70° C.
Kinetic assays were performed on a BIOMEK® 1000 programmable robotic station (Beckman Instruments). […] The highest nucleotide concentration contained 1 to 1.5 million Cerenkov counts of ^32P-labeled substrate per assay. […] The enzyme dilution buffer consisted of 25 mM Tris-HCl pH 8.9, 5 μM ZnSO4 5 mM MgCl2, 0.1 mM DTT, 100 mM NaCl and 0.1 mg/ml BSA (Calbiochem; fatty acid free). Activity at each substrate concentration was derived from a linear fit of successive four-fold enzyme dilutions across the plate.
Assays were performed at 30° C. for 15 minutes. After 12 minutes, 5 μl snake venom from Crotalus atrox (15 mg/ml protein) was added to each reaction. Assays were stopped by addition 200 μl of charcoal suspension (25 mg/ml activated charcoal in 0.1 M monobasic potassium phosphate). The plate was centrifuged at 2600 rpm, and 200 μl of each supernatant was transferred into Microbeta® counting plates and counted on a WALLAC Microbeta® by Cerenkov counting. Data were evaluated with a predesigned Microsoft Excel® Spreadsheet, and the kinetic parameters were fitted to a Michaelis-Menton model using the program Table Curve® from Jandel Scientific.

PDE2 = PDE2 (Homo sapiens, UniProt O00408); details: target family PDE2; Podzuweit et al. 1995; cited from earlier work
Chain of PDE2 (O00408 whole entry): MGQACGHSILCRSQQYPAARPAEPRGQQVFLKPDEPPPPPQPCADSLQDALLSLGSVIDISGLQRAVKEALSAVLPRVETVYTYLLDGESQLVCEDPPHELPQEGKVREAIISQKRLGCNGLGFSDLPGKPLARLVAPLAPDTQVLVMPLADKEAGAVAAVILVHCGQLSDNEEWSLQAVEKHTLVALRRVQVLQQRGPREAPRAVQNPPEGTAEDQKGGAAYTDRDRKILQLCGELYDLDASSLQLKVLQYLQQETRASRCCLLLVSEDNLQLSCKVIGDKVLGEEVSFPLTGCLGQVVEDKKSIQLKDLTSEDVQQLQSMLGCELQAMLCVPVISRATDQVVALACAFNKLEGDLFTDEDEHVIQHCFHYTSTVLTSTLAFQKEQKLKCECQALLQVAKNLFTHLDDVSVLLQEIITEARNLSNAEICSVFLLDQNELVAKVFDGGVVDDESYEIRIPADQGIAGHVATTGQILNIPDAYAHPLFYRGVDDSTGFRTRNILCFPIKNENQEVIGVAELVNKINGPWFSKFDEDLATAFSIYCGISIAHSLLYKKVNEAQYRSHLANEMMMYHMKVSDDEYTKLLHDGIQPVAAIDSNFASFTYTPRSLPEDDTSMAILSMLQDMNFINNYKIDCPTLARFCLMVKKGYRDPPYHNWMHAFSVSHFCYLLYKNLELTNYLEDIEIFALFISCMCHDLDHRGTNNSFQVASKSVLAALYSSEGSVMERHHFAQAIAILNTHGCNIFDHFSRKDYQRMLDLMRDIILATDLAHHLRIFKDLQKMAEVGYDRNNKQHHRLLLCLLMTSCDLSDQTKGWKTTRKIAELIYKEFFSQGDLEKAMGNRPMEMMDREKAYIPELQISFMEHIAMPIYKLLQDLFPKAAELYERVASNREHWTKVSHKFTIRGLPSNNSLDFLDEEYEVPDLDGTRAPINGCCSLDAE

non-specific = details: Coste and Grodin 1995, read-out: Target Family IC50; cited from earlier work
PDE4 = details: target family PDE4; Bolger et al. 1993; cited from earlier work
PDE5 = PDE5 (Homo sapiens, UniProt O76074); details: target family PDE5; Coste and Grodin 1995; cited from earlier work
[3] = cAMP as substrate, recombinant PDE10 (clone FB94a) yeast extract

Which “hydrolytic activity in the extract” value (PDE10 [1]; PDE10 yeast extract) does the source give for Nc1nc2c(ncn2[C@@H]2O[C@@H]3COP(=O)(O)O[C@H]3[C@H]2O)c(=O)[nH]1 [cGMP] here?
The value was 0.035 (±0.01) μmol/min/mg.

What about the Km (PDE10 [1]; substrate of PDE10, 30° C., Michaelis-Menton fit) of the same molecule?
Its Km is 5 nM.

Which results are given for CN(C(=O)CCCOc1ccc2[nH]c(=O)ccc2c1)C1CCCCC1 [Cilostamide]?
IC50 (PDE3): 0.04 to 0.9 µM; IC50 (PDE10 [2]): 100 µM

Which IC50 (PDE10 [2]) does the source give for CCCCCCC(C(C)O)n1cnc2c(N)ncnc21 (stereo not drawn) [EHNA, erythro-9-(2-hydroxy-3-nonyl)adenine] here?
The IC50 was 477 µM.

And the IC50 (PDE2)?
Its IC50 is 0.8 µM.

Which results are given for isobutyl methyl xanthine [IBMX]?
IC50 (PDE10 [2]; [3]): 59 µM; IC50 (non-specific): 2 to 20 µM

What does the source list for COc1ccc(C2CNC(=O)C2)cc1OC1CCCC1 (stereo not drawn) [Rolipram, rolipram]?
IC50 (PDE4): […]; IC50 (PDE10 [2]): 529 µM

Which IC50 (PDE5) does the source give for CCCOc1ccc(NS(C)(=O)=O)cc1-c1nc2c(c(C)nn2C)c(=O)[nH]1 [DMPPO] here?
The IC50 was 0.003 µM.

What about the IC50 (PDE10 [2]; [3]) of the same molecule?
Its IC50 is 9 µM.

From US6734003B2, “Phosphodiesterase 10” (Icos Corporation, priority 1998, dated 2004)
